Tests used:
[1] = tested on: CD4 and P56^Lck; test: CD4 immunoprecipitation probed with anti-p56Lck; format: cell-based; conditions: viable murine splenic enriched CD4+ T cells, 2 hours, 400 µM
Procedure: Cells, harvested after 2 hours of culture with or without MnTBAP, are resuspended in solubilization buffer containing 1% NP-40 (Sigma-Aldrich), 0.1 M (NH4)2SO4, 20 mM Tris (pH 7.5), 10% glycerol, 25 mM NaF (Sigma-Aldrich), 1 mM Na3VO4 (Thermo Fisher Scientific, Villebon-sur-Yvette, France) and 1x protease inhibitor mixture (Roche, Basel, Switzerland). After 30 minutes of incubation under gentle agitation, cell lysates are centrifuged at 14,000 x g for 30 minutes. Lysates are frozen in aliquots at -20°C or used immediately. Immunoprecipitation is performed by incubation overnight of lysates with rat anti-mouse CD4 (GK 1.5, Biolegend, San Diego, CA, USA) under gentle agitation at 4°C. The antigen-antibody complex is then added to Protein A/G resin slurry (Pierce, Thermo Fisher scientific), and incubated with gentle mixing for 2 hours at room temperature, and finally microcentrifuged for 30 seconds. The pellet is washed five times with solubilization buffer, and the immunoprecipitated material is eluted by incubating the complex for 2-5 minutes at 95-100°C in Laemmli sample buffer prepared without β-ME. […] Infrared fluorescence of the secondary antibodies was read on an Odyssey Imaging System, and quantification of bands was performed using the ImageStudio Lite software (LI-COR Biosciences).

[2] = tested on: transgene-specific CD8^+ and CD4^+ T-cell responses; test: IM rAAV gene transfer: transgene-specific T-cell responses by IFN-γ ELISPOT; format: in vivo, C57BL/6 mice; conditions: vs PBS
Procedure: (§1) MnTBAP (Calbiochem, San Diego, USA or Enzo Life Sciences, Farmingdale, USA) is dissolved in 75 mM NaOH to constitute a 20 mM stock solution. MnTBAP is dissolved in the complete medium, used for in vitro treatment, containing RPMI-1640 supplemented with 10% heat-inactivated fetal calf serum, 100 U/ml penicillin/streptomycin, 2 mM glutamax and 50 µM β-mercaptoethanol β-ME). Hypertonic medium, used to block clathrin dependent endocytosis, is complete medium supplemented with 0.45 M sucrose. For in vivo treatment, the stock solution is diluted with PBS and administered at 80 mg/kg intraperitoneally daily during five days. Control animals are injected with equivalent volume of PBS.
Intramuscular (IM) injection: Two hours post first intraperitoneal (IP) injection of MnTBAP, mice are anesthetized by IP injection of xylazine (10 mg/kg) and ketamine (100 mg/kg) and 25 µl of a rAAV2/1 CMV SGCA HY viral preparation containing 2.5.10^9 vg is injected in the left tibialis anterior muscle (TA). Controls are injected with PBS. […] Spleens are harvested to analyze transgene-specific T cell response.
Spleens are harvested to analyze the cellular immune anti-transgene response by T-cell cytokine response assay. Multiscreen-HA Assay System 96-well Filtration plates (Merck) are coated overnight with 2.5 µg/ml of anti-mouse IFN-γ purified mAb (eBiosciences) at 4°C, washed, and then blocked with RPMI 1640 medium (Life Technologies, Saint-Aubin, France) supplemented with 10% heat inactivated fetal bovine serum (FCS), 100U/ml penicillin/streptomycin (Thermo Fisher Scientific) and 2mM GlutaMAXTM-I (Life technologies) for 2 hours at 37°C. Plates are washed three times with RPMI 1640 medium without FCS. […] Spots are counted using an AID reader (Ceipheid Benelux, Louven, Belgium). Spot forming units (SFU) per million cells for each mouse are calculated as the average value of duplicate measures after subtraction of background values obtained with in vitro unstimulated splenocytes.

[3] = tested on: humoral response against capsid; test: Anti-rAAV1 IgG titers by ELISA after IV rAAV and readministration; format: in vivo, C57BL/6 mice; conditions: for specific anti-rAAV IgG: 80 mg/kg IP daily 5 days, vs control group
Procedure: as §1
Intravenous (IV) injection: Two hours post first IP injection of MnTBAP, mice are anesthetized by IP injection of xylazine (10 mg/kg) and ketamine (100 mg/kg) and 200 µl of a rAAV2/1 CMV SGCA HY viral preparation containing 2.5.10^9 vg is injected into retro orbital sinus or into tail vein. Controls are injected with PBS. Serum samples are harvested at D21 and D28 post vector injection to analyze capsid-specific humoral response.
Readministration protocol: After the initial IV injection of rAAV2/1 CMV SGCA HY vector at D0 (two hours post first IP injection of MnTBAP) the second rAAV1 injection (2.10^9 vg of rAAV2/1 CMV mSeAP) is performed 28 days later in the left TA muscle. Mice are followed up to 93 days after readministration to analyze capsid-specific humoral response and to measure circulating mSeAP from serum samples. Mice are killed 93 days after second injection of vector. Left and right TA muscles are harvested for histological and enzymatic assay.
rAAVl-specific serum antibody titers are evaluated by ELISA. […] Reaction is stopped with an H2SO4 solution and the optical density at 450 nm is determined using a […] (Discovery HT-R, BioServ, Thiais, France) with KC4 software. The area under the curve (AUC) values obtained from the optical densities at four dilution points are calculated for statistical analysis using GraphPad Prism software (Logi Labo, Paris, France).

[4] = eight days post vector injection

O=C(O)c1ccc(-c2c3nc(c(-c4ccc(C(=O)O)cc4)c4ccc([n-]4)c(-c4ccc(C(=O)O)cc4)c4nc(c(-c5ccc(C(=O)O)cc5)c5ccc2[n-]5)C=C4)C=C3)cc1.[Mn+3] [MnTBAP, manganese [III] tetrakis (4-benzoic acid) porphyrin]
link between CD4 and P56^Lck [1]: disruption of CD4 and P56^Lck is observed
IFN-γ response of transgene specific CD4^+ T cells [2, 4]: significantly decreased
IFN-γ response of transgene specific CD8^+ T cells [2, 4]: no significant differences
IFN-γ response of transgene specific CD8^+ T cells ([2]; fifteen days post vector injection): significantly decreased
specific anti-rAAV IgG ([3]; Day 21 post IV vector injection): no or significantly less specific anti-rAAV IgG
specific anti-rAAV IgG ([3]; Day 28 post IV vector injection): no or significantly less specific anti-rAAV IgG
specific anti-rAAV IgG titer ([3]; serum 10 days after vector readministration in TA (28 days post first injection), vs PBS): decrease of specific anti-rAAV IgG titer

Reference: patent EP3431088A1, “MNTBAP FOR USE IN INDUCING A TRANSIENT IMMUNE TOLERANCE” (priority 2017, dated 2019)
